Measurements published in US8454991B2, “Method and device for photodynamic therapy” (Quest Pharmatech Inc., priority 2006, dated 2013).

Key:
mouse skin = type: in vivo, Male Balb/c mice
Procedure: The feasibility of using these alternative light sources as over the counter devices for topical PDT application is tested using an in vivo hair removal assay to assess their ability to generate a hair removal effect on mouse skin using SL-017, a known photosensitizer. Mouse strain. Male Balb/c mice of approximately 6 to 8 weeks of age weighing 16 to 18 grams were obtained from Charles River animal facility. The animals were allowed a minimum of 1 week to acclimatize to the facility prior to treatment. In vivo hair removal assay. The animals were anesthetized with a 0.1 ml intra peritoneal injection of 12 mg/ml sodium pentobarbital in 0.9% Saline. An approximately 1.5×1.5 cm square area on the back of each animal was shaved and the area treated with a 2% SL-017 topical gel for 60 minutes. The excess gel was removed from the area and it was covered with a template with a 1 cm diameter opening. The open area was treated with either 15 or 30 J/cm^2 of light from a LED flashlight. […] The mice were monitored once weekly for the re-growth of hair in the treated area. For the white LED, the treatment time required for the 15 J/cm^2 dose group was 5 minutes and 45 sec. while for the 30 J/cm^2 dose group was 11 minutes and 30 seconds. For the red LED, the treatment time required for the 15 J/cm^2 dose group was 45 minutes, and for the 30 J/cm^2 dose group was 90 minutes.

EMT-6 tumor cells = experiment: In vitro clonogenic assay (PDT phototoxic effect); type: cell-based; settings: 2 hours incubation; for inhibition at 5 µM: Mus musculus
Procedure: The feasibility of using these alternative light sources as over the counter devices for topical PDT application is tested using an in vitro clonogenic assay to assess their ability to generate a phototoxic effect with SL-017, a known photosensitizer.
In vitro clonogenic assay. EMT-6 tumor cells are grown in culture in RPMI 1640 and plated onto Petri dishes. The photosensitizer SL-017 is added at a fixed concentration of 5 μM to the dishes and allowed to incubate for 2 hours, and then removed. The dishes are irradiated using the different two LED light sources and the orange (rhodamine 6G) chemiluminescent light source at pre-determined light doses. The EMT-6 cells are then re-plated and allowed to grow, for 5 to 7 days The number of surviving colonies in the control and treated plates are counted visually and compared.

## COc1c2c3c4c(c(NCCCN(C)C)c(=O)c5c(O)cc(OC)c(c6c(OC)cc(O)c(c1=O)c63)c54)C=C(C)C2C(C)=O (stereo not shown) [SL-017]
Mouse skin; 2% SL-017 topical gel for 60 minutes, red LED light, 30 J/cm^2
  delay in hair re-growth: 3 weeks
Mouse skin; 2% SL-017 topical gel for 60 minutes, white LED light, 15 J/cm^2
  re-growth of hair in the treated area versus controls: no differences in the re-growth of hair
Mouse skin; 2% SL-017 topical gel for 60 minutes, white LED light, 30 J/cm^2
  delay in re-growth of hair: < 1 week
Mouse skin; mouse, in vivo
  skin reaction post treatment at the treated site: erythema is observed
EMT-6 tumor cells; EMT6, SL-017 5 μM, orange (rhodamine 6G) chemiluminescent light stick, 1 hour exposure
  inhibition at 5 µM: 31.3%
EMT-6 tumor cells; EMT6, light or radiation study, 2 h, SL-017 5 μM, red LED light (3 W), 0.1 J/cm^2
  inhibition at 5 µM: 100%
EMT-6 tumor cells; EMT6, light or radiation study, 2 h, SL-017 5 μM, red LED light (3 W), 0.25 J/cm^2
  inhibition at 5 µM: 100%
EMT-6 tumor cells; EMT6, light or radiation study, 2 h, SL-017 5 μM, red LED light (3 W), 0.4 J/cm^2
  inhibition at 5 µM: 100%
EMT-6 tumor cells; EMT6, light or radiation study, 2 h, SL-017 5 μM, white LED light (9 W), 0.5 J/cm^2
  inhibition at 5 µM: 98.6%
EMT-6 tumor cells; EMT6, light or radiation study, 2 h, SL-017 5 μM, white LED light (9 W), 1.0 J/cm^2
  inhibition at 5 µM: 100%
EMT-6 tumor cells; EMT6, light or radiation study, 2 h, SL-017 5 μM, white LED light (9 W), 2.0 J/cm^2
  inhibition at 5 µM: 100%
EMT-6 tumor cells; SL-017 5 μM, orange (rhodamine 6G) chemiluminescent light stick, 1 hour exposure
  Number of Colonies: 86.3
EMT-6 tumor cells; SL-017 5 μM, orange (rhodamine 6G) chemiluminescent light stick, 2 hour exposure
  Number of Colonies: 187.3
EMT-6 tumor cells; SL-017 5 μM, red LED light (3 W), 0.1 J/cm^2
  Number of Colonies: 0
EMT-6 tumor cells; SL-017 5 μM, red LED light (3 W), 0.25 J/cm^2
  Number of Colonies: 0
EMT-6 tumor cells; SL-017 5 μM, red LED light (3 W), 0.4 J/cm^2
  Number of Colonies: 0
EMT-6 tumor cells; SL-017 5 μM, white LED light (9 W), 0.5 J/cm^2
  Number of Colonies: 1.8
EMT-6 tumor cells; SL-017 5 μM, white LED light (9 W), 1.0 J/cm^2
  Number of Colonies: 0
EMT-6 tumor cells; SL-017 5 μM, white LED light (9 W), 2.0 J/cm^2
  Number of Colonies: 0
